We go through two molecules from PMC12698583, “Efficacy of sulfonamides targeting malic enzyme in an animal model of Chagas disease” (Frontiers in Pharmacology, 2025).

What all share (type): in vitro ADME
Data set [1] is described as follows: Caco-2 permeability assay. Conditions: human, Caco-2; apical to basolateral, 0.1 mM, 120 min. On the procedure:
(§1) Caco-2 cells (2.5 × 10^5) were cultured on 12 mm diameter filters with DMEM-PEST medium in an incubator at 37 °C and 10% CO2. Monolayer formation was monitored through transepithelial electrical resistance (TEER). […] The assay was conducted under orbital shaking at 37 °C. […] Compound quantification was performed using the HPLC-UV method, following the previously adjusted chromatographic conditions and parameters. At the end of the experiment, monolayer integrity was confirmed by measuring TEER.

For data set [2], the system named is Caco-2 cells. The experiment in a line: Caco-2 permeability assay. On the procedure:
as §1
A general note: Passage across Caco-2 layers is used to estimate intestinal permeability.

Data set [3] in a line: Metabolic stability in mouse liver microsomes. The conditions noted are these: for half-life at 1 μM: CD-1, pH 7.4, mouse liver microsomes, 0.25 mg/mL, read-out: T1/2 - mouse; for parent compound remaining: mouse microsomes. On the procedure: The in vitro metabolic stability of the compound was evaluated in pooled human liver microsomes (HLM, 20 mg/mL), Sprague-Dawley rat liver microsomes (RLM, 20 mg/mL), and CD-1 mouse liver microsomes (MLM, 20 mg/mL), all purchased from GIBCO (Thermo Fisher Scientific). NADPH regenerating system (GentestTM) was prepared in potassium phosphate buffer (100 mM, pH 7.4). […] The reaction was stopped by adding acetonitrile, followed by vortex homogenization, sonication for 5 min, and centrifugation at 10,000 g for 5 min at 4 °C. The supernatants were transferred to glass vials for LC-MS/MS analysis. The half-life was estimated based on the area under the curve (AUC) through regression analysis of the concentration decay over time. This calculation was performed using the following formula: t1/2=LN2/Kel
Where LN is the neperian logarithm, and K is the slope of the regression of the LN of AUC as a function of time. Then, the microsomal intrinsic clearance (CLint, mic) was calculated using the following equation: CLint.mic=LN2/t1/2 x VI/PM
Where V is the incubation volume (µL), and PM is the microsomal protein concentration (mg). This intrinsic clearance can be extrapolated to the whole liver (CLint,hep) using the following equation: CLint.hep=CLint.mic x ML x LB
ML is the microsomal yield, and LB is the liver weight (g) per kilogram of body weight.
To ensure the linearity of the elimination phase and to avoid the influence of points outside the log-linear range, the points deviated from the expected first-order kinetic profile were excluded. The supernatants were analyzed by UPLC-Xevo-TQ-XS from Waters. Chromatographic separation was performed on an Acquity UPLC BEH C18 column (2.1 × 100 mm, 1.7 µm particle size), maintained at 40 °C. The mobile phases were (A) water with 0.1% formic acid and (B) acetonitrile with 0.1% formic acid. […] The total run time was 5 min.
A general note: Microsomes from liver hold many membrane-bound enzymes, among them those of drug oxidation.

Usually Papp stands for a coefficient for how fast a substance crosses the barrier. As for `CC(C)Oc1ccc(NS(=O)(=O)c2cccc(NC(=O)c3cnccn3)c2)cc1` [AC-M110, N-(3-(N-(4-isopropoxyphenyl)sulfamoyl)phenyl)pyrazine-2-carboxamide], the Papp at 120 min, 0.1 mM in data set [1] came to 20.7 ×10⁻⁶ cm/s. The “Caco-2 permeability classification (in words)” value in data set [2] is reported as “approaching high permeability classification”. Besides, the microsomal CLint at 1 μM in data set [3] (CD-1, mouse, liver microsomes, pH 7.4, mouse liver microsomes, read-out: CL int. mic.) was determined as 339 µL/min/mg. The half-life at 1 μM in data set [3] worked out at 2 min. The parent compound remaining entry in data set [3] (15 min) is recorded as “less than 1%”. In addition, the CL int. hep. in data set [3] (mouse, extrapolated to the whole liver) is 1370 mL/min/kg.

Molecule `COc1ccc(NS(=O)(=O)c2cccc(NC(=O)c3cnccn3)c2)cc1` [AC-R008, N-(3-(N-(4-methoxyphenyl)sulfamoyl)phenyl)pyrazine-2-carboxamide] came in with a Papp at 120 min, 0.1 mM in data set [1] of 9.71 ×10⁻⁶ cm/s. Moreover, in data set [2], the “Caco-2 permeability classification (in words)” value is “near the lower limit for moderate permeability”. Besides, in data set [3], the half-life at 1 μM worked out at 3 min. Besides, the parent compound remaining is recorded as 5% in data set [3] (5 min) and “less than 1%” in data set [3] (15 min).
